The target of test [1] is RET kinase (Homo sapiens, UniProt P07949). In words: RET Kinase Activity Assay. Format: biochemical. Conditions: read-out: Ret, % INH, at 30 uM. Here is the method: The disclosed compounds were assayed for their ability to inhibit the activity of RET kinase. Nunc Maxwasorb plates were coated with streptavidin by overnight incubation with 100 μL per well of 1 μg/mL Streptavidin in DPBS. Prior to the start of the experiment, the plates were washed with TBST (3×200 μL) and blocked for at least 1 hour by adding 150 μL of 5% BSA/TBST. The plates were washed with TBST (3×200 […]) and left dry immediately before the capture step.
The test articles and controls (Staurosporine and Sutent) were prepared using the following assay buffer @ 3× desired final concentration (50 mM […], 0.02 mg/mL BSA, 10 mM MgCl2, 0.1 mM Na3VO4, 1 mM EGTA, 75 μM ATP0.01% NP-40, 2 mM DTT in 10% glycerol/water). In a reaction plate, were added rapidly 20 μL test article (or control) and 20 μL RET (0.25 ng/4 final concentration). The plate was incubated for 15 minutes. To the reaction plate was added 20 μL of Pyk-2 (0.25 ng/4 final concentration). The plate was incubated at room temperature for one hour.
From the reaction plate, 50 μL was transferred to the streptavidin coated plate. The capture plate was incubated at room temperature for 30 minutes then washed 6× with TBST. To the capture plate was added 100 μL/well of Cell Signaling anti-phospho tyrosine at a dilution of 1:3000 in 2% BSA/TBST. The plate was incubated for one hour at room temperature then washed 6× with TBST. To the capture plate was added 100 μL/well of Alkaline Phosphatase Tagged Goat anti Mouse Antibody at a dilution of 1:4000 in 2% BSA/TBST. The plate was incubated for one hour at room temperature then washed 6× with TBST. The fluorescent readout was initiated by the addition of 100 μL/well of Attophos reagent (6 mg/10 mL). The reading was done on the Perkin Elmer Envision system.

Test [2] deals with T1, Tec kinase (Homo sapiens, UniProt P42680).
T1 sequence (P42680 1-631): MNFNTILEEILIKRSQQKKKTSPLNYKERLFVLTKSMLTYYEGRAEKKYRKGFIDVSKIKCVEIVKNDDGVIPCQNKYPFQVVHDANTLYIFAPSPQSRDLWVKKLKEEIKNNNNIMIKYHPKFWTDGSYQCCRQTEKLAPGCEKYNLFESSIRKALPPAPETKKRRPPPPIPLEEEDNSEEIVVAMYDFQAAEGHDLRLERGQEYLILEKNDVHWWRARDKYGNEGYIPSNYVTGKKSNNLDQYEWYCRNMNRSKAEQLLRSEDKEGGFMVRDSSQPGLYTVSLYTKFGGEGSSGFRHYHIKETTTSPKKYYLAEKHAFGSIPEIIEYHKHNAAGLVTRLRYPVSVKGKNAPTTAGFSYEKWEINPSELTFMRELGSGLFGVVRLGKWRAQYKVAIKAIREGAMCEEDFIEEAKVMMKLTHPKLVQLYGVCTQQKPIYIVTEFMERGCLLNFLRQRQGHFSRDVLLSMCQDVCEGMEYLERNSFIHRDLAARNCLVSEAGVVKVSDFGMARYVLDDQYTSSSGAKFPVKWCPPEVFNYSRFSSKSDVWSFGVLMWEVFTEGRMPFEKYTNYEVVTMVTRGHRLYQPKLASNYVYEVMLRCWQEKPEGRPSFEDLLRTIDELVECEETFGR
Kind of test: Tec Kinase Activity Assay. Format: biochemical. Conditions: read-out: Tec % INH, at 30 uM. Here is the method:
The disclosed compounds were assayed for their ability to inhibit the activity of Tec kinase. Nunc Maxisorb plates were coated with streptavidin by overnight incubation with 100 μL per well of 1 μg/mL Streptavidin in DPBS. Prior to the start of the experiment, the plates were washed with TBST (3×200 μL) and blocked for at least 1 hour by adding 150 μL of 5% BSA/TBST. The plates were washed with TBST (3×200 μL/well) and left dry immediately before the capture step.
The test articles and controls (Staurosporine and Sutent) were prepared using the following assay buffer @ 3× desired final concentration (50 mM Tris-HCl, 0.02 mg/mL BSA, 10 mM MgCl2, 0.1 mM Na3VO4, 1 mM EGTA, 75 μM ATP0.01% NP-40, 2 mM DTT in 10% glycerol/water). In a reaction plate were added rapidly 20 μL test article (or control) and 20 μL TEC 0.25 ng/4. The plate was incubated for 30 minutes. To the reaction plate was added 20 μL of Pyk-2.5 ng/μL. The plate was incubated at room temperature for two hours. From the reaction plate, 50 μL was transferred to the streptavidin coated plate. The capture plate was incubated at room temperature for 30 minutes then washed 6× with TBST. To the capture plate was added 100 μL/well of Cell Signaling anti-phospho tyrosine at a dilution of 1:3000 in 2% BSA/TBST. The plate was incubated for one hour at room temperature then washed 6× with TBST. To the capture plate was added 100 μL/well of Alkaline Phosphatase Tagged Goat anti Mouse Antibody at a dilution of 1:4000 in 2% BSA/TBST. The plate was incubated for one hour at room temperature then washed 6× with TBST. The fluorescent readout was initiated by the addition of 100 μL/well of Attophos reagent (6 mg/10 mL). The reading was done on the Perkin Elmer Envision system.

RET kinase, sequence (P07949 29-1114): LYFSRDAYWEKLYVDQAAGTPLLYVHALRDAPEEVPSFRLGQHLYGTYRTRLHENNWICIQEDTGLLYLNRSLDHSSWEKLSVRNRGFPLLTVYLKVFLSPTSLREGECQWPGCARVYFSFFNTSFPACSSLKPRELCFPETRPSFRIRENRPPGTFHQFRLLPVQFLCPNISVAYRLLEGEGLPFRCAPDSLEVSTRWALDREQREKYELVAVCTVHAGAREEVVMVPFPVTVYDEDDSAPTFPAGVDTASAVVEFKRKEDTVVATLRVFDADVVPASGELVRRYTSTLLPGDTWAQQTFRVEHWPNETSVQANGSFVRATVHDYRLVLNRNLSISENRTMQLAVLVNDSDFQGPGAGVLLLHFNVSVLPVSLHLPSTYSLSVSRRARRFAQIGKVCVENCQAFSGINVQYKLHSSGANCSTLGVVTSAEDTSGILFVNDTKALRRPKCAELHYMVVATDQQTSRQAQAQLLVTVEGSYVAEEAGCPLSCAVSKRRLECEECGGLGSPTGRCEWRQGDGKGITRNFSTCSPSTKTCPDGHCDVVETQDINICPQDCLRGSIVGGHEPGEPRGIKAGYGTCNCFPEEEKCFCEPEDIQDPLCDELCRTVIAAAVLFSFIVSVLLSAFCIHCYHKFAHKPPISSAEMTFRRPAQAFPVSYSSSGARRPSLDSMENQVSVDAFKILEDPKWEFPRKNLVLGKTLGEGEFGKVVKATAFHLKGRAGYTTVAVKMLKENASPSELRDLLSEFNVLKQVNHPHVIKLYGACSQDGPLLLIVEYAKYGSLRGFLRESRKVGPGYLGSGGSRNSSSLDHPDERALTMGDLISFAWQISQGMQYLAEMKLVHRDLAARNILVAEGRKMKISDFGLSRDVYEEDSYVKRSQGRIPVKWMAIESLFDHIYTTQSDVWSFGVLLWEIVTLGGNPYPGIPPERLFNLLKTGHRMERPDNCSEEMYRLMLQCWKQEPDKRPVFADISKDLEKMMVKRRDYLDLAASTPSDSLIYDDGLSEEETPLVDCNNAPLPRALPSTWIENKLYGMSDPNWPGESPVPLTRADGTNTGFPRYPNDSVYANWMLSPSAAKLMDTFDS

Turning to `COc1cc2c(cc1OC)C(c1cccc(C(F)(F)F)c1)N(c1nc(N)nc3[nH]cnc13)CC2` (stereo not shown) [Compound 50, 6-{6,7-dimethoxy-1-[3-(trifluoromethyl)phenyl]-3,4-dihydroisoquinolin-2(1H)-yl}-9H-purin-2-amine], the inhibition at 30 µM in test [1] and in test [2] was below 50% each time.

`COc1cc2c(cc1OC)C(c1ccccc1Cl)N(c1nc(N)nc3[nH]cnc13)CC2` (stereo not shown) [Compound 48, 6-[1-(2-chlorophenyl)-6,7-dimethoxy-3,4-dihydroisoquinolin-2(1H)-yl]-9H-purin-2-amine]: the inhibition at 30 µM in test [1] and in test [2] was below 50% each time.
